Measured values: patent US20020048585A1, “Methods of modulating wound healing and angiogenesis” (priority 2000, published 2002)

Test system: primary skin fibroblasts
Experiment: In vitro wound closure (migration) test in confluent fibroblast cultures
Assay type: cell-based, mouse
Settings: medium (DMEM with 2% FBS) supplemented with 25 ng/ml; syndecan-4+/+, +/- and -/- fibroblasts
Experimental: Primary skin fibroblasts were isolated from newborn syndecan-4+/+, syndecan-4+/−, and syndecan-4−/− mice from the same litter. Mice were sacrificed, and their skins were removed, flattened, and floated on a 0.25% trypsin solution (Life Technologies Inc., Gaithersburg, Md., USA) at 4° C. overnight. The dermis was separated from the epidermis and dissociated by stirring at room temperature for 30 minutes in HBSS containing collagenase (500 μg/ml) (Life Technologies Inc.). The cell suspension of each skin was passed through a cell strainer (Becton Dickinson and Co., Franklin Lakes, N.J., USA) and transferred to a 10-cm cell culture dish and cultured as described previously (Saoncella et al.1999. Proc. Natl. Acad. Sci. USA. 96:2805-2810). Dermal fibroblasts were maintained at subconfluent densities and used between passages three and six.
Primary fibroblast cultures were established for 2 days in DMEM with 10% FBS followed by an overnight culture in DMEM with 2% FBS. In vitro wound closure tests were performed by creating clear lines in confluent cultures with a sterile yellow plastic pipette tip. After two washes with medium, the monolayers were covered with fresh medium and the migration of the cells into the cleared spaces was monitored over time. The control medium used during wound closure was DMEM with 2% FBS. […]

Substance: EGF: growth factor (Becton Dickinson) added to culture medium (NSDSECPLSHDGYCLHDGVCMYIEALDKYACNCVVGYIGERCQYRDLKWWELR; Epidermal growth factor; UniProt P01133 971-1023, looked up)
- rate of wound closure: did not alter the rate of wound closure

Substance: FGF-2: growth factor, ligand of the FGF-2 receptor (R&D Systems), added to culture medium
- rate of wound closure: did not alter the rate of wound closure
